In ChEMBL document CHEMBL5375980, “PSMA-targeted small-molecule drug-conjugates with valine-citrulline and phosphoramidate cleavable linkers” (Bioorg Med Chem Lett, 2024):
Activity calls are given as the source filed them. The rule behind the calls is not given here. Where a SMILES comes first, the peptide text is derived from it. [ ]: non-standard residue; d: D form. The star is where a group is joined. Dolaproine = CO[C@@H]([C@@H]1CCCN1)[C@@H](C)C(=O)O; Dil = CC[C@H](C)[C@H](NC)[C@@H](CC(=O)O)OC; X1 = C[C@@H](N*)[C@@H](O)c1ccccc1; NMeV = CN[C@H](C(=O)O)C(C)C

Tests used:
[1] = Anticancer activity against PMSA positive human PC3-PIP cells assessed as cell viability at 10 nM incubated for 72 hrs by CellTiter-Glo Luminescent Cell Viability assay relative to control; type: functional; conditions: read-out: Activity
[2] = test system: PC-3; assay: Anticancer activity against PMSA negative human PC-3 cells assessed as cell viability at 10 nM incubated for 72 hrs by CellTiter-Glo Luminescent Cell Viability assay relative to control; type: functional; conditions: read-out: Activity
[3] = test system: LNCaP C4-2B; assay: Anticancer activity against PSMA positive human LNCaP C4-2B cells assessed as cell viability at 10 nM incubated for 72 hrs by CellTiter-Glo Luminescent Cell Viability assay relative to control; type: functional; conditions: read-out: Activity
[4] = Anticancer activity against PSMA positive human PC3-PIP cells assessed as cell viability at 4 nM incubated for 72 hrs by CellTiter-Glo Luminescent Cell Viability assay relative to control; type: functional; conditions: read-out: Activity
[5] = Anticancer activity against PSMA positive human PC3-PIP cells assessed as cell viability at 100 nM incubated for 72 hrs by CellTiter-Glo Luminescent Cell Viability assay relative to control; type: functional; conditions: read-out: Activity
[6] = test system: PC-3; assay: Anticancer activity against PMSA negative human PC-3 cells assessed as reduction in cell viability at 10 nM incubated for 72 hrs by CellTiter-Glo Luminescent Cell Viability assay; type: functional, cell-based
[7] = test system: LNCaP C4-2B; assay: Anticancer activity against PSMA positive human LNCaP C4-2B cells assessed as reduction in cell viability at 10 nM incubated for 72 hrs by CellTiter-Glo Luminescent Cell Viability assay; type: functional, cell-based
[8] = test system: LNCaP C4-2B; assay: Anticancer activity against PSMA positive human LNCaP C4-2B cells assessed as reduction in cell viability incubated for 72 hrs by CellTiter-Glo Luminescent Cell Viability assay; type: functional, cell-based; conditions: dose […]
[9] = test system: LNCaP C4-2B; assay: Anticancer activity against PSMA positive human LNCaP C4-2B cells assessed as cell viability at 100 nM incubated for 72 hrs by CellTiter-Glo Luminescent Cell Viability assay relative to control; type: functional; conditions: read-out: Activity
[10] = test system: LNCaP C4-2B; assay: Anticancer activity against PSMA positive human LNCaP C4-2B cells assessed as cell viability at 20 nM incubated for 72 hrs by CellTiter-Glo Luminescent Cell Viability assay relative to control; type: functional; conditions: read-out: Activity
[11] = test system: PC3-PIP cell; assay: Anticancer activity against PSMA positive human PC3-PIP cells assessed as reduction in cell viability incubated for 72 hrs by CellTiter-Glo Luminescent Cell Viability assay; type: functional, cell-based; conditions: dose 4-100 µM

SMILES | viability at 0.01 µM [1] | viability at 0.01 µM [2] | viability at 0.01 µM [3] | viability at 0.004 µM [4] | viability at 0.1 µM [5] | Activity [6] | Activity [7] | Activity [8] | viability at 0.1 µM [9] | viability at 0.02 µM [10] | Activity [11]
CC[C@H](C)[C@@H]([C@@H](CC(=O)N1CCC[C@H]1[C@H](OC)[C@@H](C)C(=O)N[C@H](C)[C@@H](O)c1ccccc1)OC)N(C)C(=O)[C@@H](NC(=O)[C@@H](NC)C(C)C)C(C)C (H-[NMeV]V[Dil][Dolaproine]-X1) | < 50% | < 50% | < 50% | – | – | – | – | – | – | – | –
CC[C@H](C)[C@@H]([C@@H](CC(=O)N1CCC[C@H]1[C@H](OC)[C@@H](C)C(=O)N[C@H](C)[C@@H](O)c1ccccc1)OC)N(C)C(=O)[C@@H](NC(=O)[C@H](C(C)C)N(C)C(=O)OCc1ccc(NC(=O)[C@H](CCCNC(N)=O)NC(=O)[C@@H](NC(=O)c2ccc(Cn3nnc4c3-c3ccccc3N(C(=O)CCC(=O)NCCOCCOCCOCCOCCC(=O)NCCCCCC(=O)N[C@@H](CCC(=O)N[C@@H](CCCOP(=O)(O)N[C@@H](CCC(=O)O)C(=O)O)C(=O)O)C(=O)O)c3ccccc3-4)cc2)C(C)C)cc1)C(C)C | < 50% | – | – | 80.9% | 25.8% | inactive | inactive | – | – | – | –
CC[C@H](C)[C@@H]([C@@H](CC(=O)N1CCC[C@H]1[C@H](OC)[C@@H](C)C(=O)N[C@H](C)[C@@H](O)c1ccccc1)OC)N(C)C(=O)[C@@H](NC(=O)[C@H](C(C)C)N(C)C(=O)OCc1ccc(OC(=O)N(C)CCN(C)P(=O)(O)OCC[C@H](NC(=O)c2ccc(Cn3nnc4c3-c3ccccc3N(C(=O)CCC(=O)NCCOCCOCCOCCOCCC(=O)NCCCCCC(=O)N[C@@H](CCC(=O)N[C@@H](CCCOP(=O)(O)N[C@@H](CCC(=O)O)C(=O)O)C(=O)O)C(=O)O)c3ccccc3-4)cc2)C(=O)O)cc1)C(C)C | 47.2% | – | 58.8% | – | – | inactive | – | Dose-Dependent Effect | 7.44% | 28.7% | Dose-Dependent Effect
